Source: US9260388B2, “Process for preparing alkyl pyroglutamic acids” (DOW GLOBAL TECHNOLOGIES LLC, priority 2011, dated 2016)

Tests used:
Assay type in all cases: physicochemical
[1] = Shake foam test (foam height); details: sodium salt, 0.1 wt % solution, shaken 20 times, t=0, average of three replicates
Method: Foaming profile of the N-alkyl pyroglutamates are evaluated using a shake foam test, and evaluated against sodium laureth sulfate. For each sample, a 0.1 wt % solution is prepared by diluting 50 mg active to 50 g in water. The 0.1 wt % solution is added to a 100 mL graduated cylinder and capped. The cylinder is shaken by hand 20 times, each time the cylinder is inverted and brought back to an upright position. Foam height (in mL) is defined as the highest point of the top layer of the foam in the graduated cylinder. If the top of the foam was not flat, the midpoint of the top of the foam was reported. Foam height is read immediately after the solution settled (t=0). Three replicates are done for each sample, and the reported foam height (in mL) is the average reading of the three replicates.

[2] = Critical micelle concentration (Kibron CMC) and surface tension, Kibron Delta-8 multichannel microtensiometer; details: for Kibron CMC: sodium salt in water, twelve two-fold dilutions starting at 1 wt %; for Surface Tension (1%): sodium salt, 1 wt % in water
Method: The critical micelle concentration (Kibron CMC) and surface tension of the N-alkyl pyroglutamic acids (as Na^+ salts) and related commercial surfactants were evaluated. For each sample, a total of twelve dilutions starting at 1 wt % were prepared, reducing the concentration in each dilution by half by taking an aliquot of the previous dilution and adding the same amount of water. The surface tension of all 12 dilutions was measured using a Kibron Delta-8 multichannel microtensiometer. Sample volume for each analysis was 50 μL.

[3] = Water solubility of sodium salts; details: for pH: pH of the sodium salt solution after neutralization
Method: Selected N-alkyl pyroglutamic acids are converted into their sodium salt by neutralizing them in water with sodium hydroxide. In general, a known amount of sample is placed in a vial and a known amount of water is added. Sample is neutralized with 25 wt % sodium hydroxide in water until pH is >7. Mild heating (50° C.) is applied when necessary to aid dissolution. The final mass is recorded. The weight percent of the solution is determined by mass of the sodium salt over the total mass of solution, and multiplying by 100. The pH of the solution is recorded after neutralization. No effort was done to prepare a saturated solution.

Shake Foam t = 0 [1] [mL]	Kibron CMC [2] [ppm]	Surface Tension (1%) [2] [Dynes/cm]	pH [3]	Solubility ([3]; sodium salt in water, neutralized with NaOH, no saturated solution prepared) [wt %]	Structure (SMILES)
11	>10000	34	7.3	–	CCCCCC(CCC)CN1C(=O)CCC1C(=O)O (stereo not shown) [Example 2]
29	78	29	7.1	15.4	CCCCCCCCCCC(CCCCCCCC)CN1C(=O)CCC1C(=O)O (stereo not shown) [Example 4]
36	625	38	10.0	–	CCC(CCCC(C)CCCC(C)C)CCN1C(=O)CCC1C(=O)O (stereo not shown) [Example 1]
